Reference: patent US20240101549A1, “N-(2-(4-CYANOTHIAZOLIDIN-3-YL)-2-OXOETHYL)-QUINOLINE-4-CARBOXAMIDES” (AstraZeneca AB, priority 2020, published 2024)

Assays:
FAP = FAP (Macaca fascicularis, UniProt A0A2K5VGH4); experiment: FAP plasma inhibition assay, cynomolgus plasma; format: biochemical; settings: cynomolgus plasma diluted 1:40, 75 μM Ala-Pro-AMC; n = 1; read-out: FAP Cyno Plasma IC50
Description: D. FAP Plasma Inhibition Assay This assay was adapted from the method described in Example 237 for detection of FAP target engagement enzyme activity in plasma. […] Compounds were tested using 10 CR, 3 fold dilution series from 500 nM FAC. Two replicates for each assay point were run on the same plate. A fluorescence blank read was taken before substrate addition. […] Plates were incubated for 40 min at rt in the dark. […] IC50 values were determined by plotting % inhibition versus log compound concentration.

Caco-2 cell permeability = format: in vitro ADME; settings: human, Caco-2, AB intrinsic; n = 1 or average of n = 2-4; read-out: Caco2 AB Intrinsic Papp
Description: Caco-2 cell permeability was measured as described in Mol Pharm 2017, 14, 1601.

Chain of FAP (A0A2K5VGH4 entry or part of it): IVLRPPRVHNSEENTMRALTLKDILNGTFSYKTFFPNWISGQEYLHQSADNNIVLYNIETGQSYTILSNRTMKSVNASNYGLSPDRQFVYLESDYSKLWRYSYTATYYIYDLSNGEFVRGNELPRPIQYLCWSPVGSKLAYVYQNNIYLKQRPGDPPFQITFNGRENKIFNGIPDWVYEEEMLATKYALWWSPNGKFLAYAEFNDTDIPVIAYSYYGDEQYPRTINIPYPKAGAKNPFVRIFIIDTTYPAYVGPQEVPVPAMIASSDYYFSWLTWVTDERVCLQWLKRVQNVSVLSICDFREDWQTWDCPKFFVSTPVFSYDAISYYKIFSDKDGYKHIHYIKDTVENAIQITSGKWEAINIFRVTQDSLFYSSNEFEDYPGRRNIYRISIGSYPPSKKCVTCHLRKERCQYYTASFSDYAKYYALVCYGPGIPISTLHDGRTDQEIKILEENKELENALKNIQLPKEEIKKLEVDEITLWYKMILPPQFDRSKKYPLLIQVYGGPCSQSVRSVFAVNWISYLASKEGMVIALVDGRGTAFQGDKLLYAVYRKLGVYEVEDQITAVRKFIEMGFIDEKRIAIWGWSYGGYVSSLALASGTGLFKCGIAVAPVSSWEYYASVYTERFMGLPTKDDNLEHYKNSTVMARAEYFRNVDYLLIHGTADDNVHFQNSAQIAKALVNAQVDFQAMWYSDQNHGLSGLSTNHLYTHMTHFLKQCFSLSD

CC(F)(F)C1CN(c2ccc3nccc(C(=O)NCC(=O)N4CSC[C@H]4C#N)c3c2)C1 [Example 147, (R)—N-(2-(4-Cyanothiazolidin-3-yl)-2-oxoethyl)-6-(3-(1,1-difluoroethyl)-azetidin-1-yl)quinoline-4-carboxamide]
IC50 (FAP): 0.1 nM

C[C@@H]1CN(c2ccc3nccc(C(=O)NCC(=O)N4CSC[C@H]4C#N)c3c2)CCO1 [Example 72, N-(2-((R)-4-Cyanothiazolidin-3-yl)-2-oxoethyl)-6-((R)-2-methylmorpholino)-quinoline-4-carboxamide]
IC50 (FAP): 0.2 nM

CC(=O)NCC1(C)CN(c2ccc3nccc(C(=O)NCC(=O)N4CSC[C@H]4C#N)c3c2)C1 [Example 181, (R)-6-(3-(Acetamidomethyl)-3-methylazetidin-1-yl)-N-(2-(4-cyano-thiazolidin-3-yl)-2-oxoethyl)quinoline-4-carboxamide]
IC50 (FAP): 0.5 nM

C[C@@H]1CN(c2ccc3nccc(C(=O)NCC(=O)N4CSC[C@H]4C#N)c3c2)C[C@H](C)O1 [Example 68, N-(2-((R)-4-Cyanothiazolidin-3-yl)-2-oxoethyl)-6-((2R,6S)-2,6-dimethylmorpholino)-quinoline-4-carboxamide]
IC50 (FAP): 0.3 nM

COC1CCN(c2ccc3nccc(C(=O)NCC(=O)N4CSC[C@H]4C#N)c3c2)CC1 [Example 8, (R)—N-(2-(4-Cyanothiazolidin-3-yl)-2-oxoethyl)-6-(4-methoxypiperidin-1-yl)quinoline-4-carboxamide]
IC50 (FAP): 0.2 nM

C[C@H]1COCCN1c1ccc2nccc(C(=O)NCC(=O)N3CSC[C@H]3C#N)c2c1 [Example 102, N-(2-((R)-4-Cyanothiazolidin-3-yl)-2-oxoethyl)-6-((S)-3-methyl-morpholino)quinoline-4-carboxamide]
IC50 (FAP): 0.2 nM

CC1(C)Cc2c(-c3ccc4nccc(C(=O)NCC(=O)N5CSC[C@H]5C#N)c4c3)cnn2C1 [Example 123, (R)—N-(2-(4-Cyanothiazolidin-3-yl)-2-oxoethyl)-6-(5,5-dimethyl-5,6-dihydro-4H-pyrrolo[1,2-b]pyrazol-3-yl)quinoline-4-carboxamide]
Papp A→B (Caco-2 cell permeability): 14 ×10⁻⁶ cm/s

COCC1(C)CN(c2ccc3nccc(C(=O)NCC(=O)N4CSC[C@H]4C#N)c3c2)C1 [Example 29, (R)—N-(2-(4-Cyanothiazolidin-3-yl)-2-oxoethyl)-6-(3-(methoxymethyl)-3-methylazetidin-1-yl)quinoline-4-carboxamide]
Papp A→B (Caco-2 cell permeability): 26 ×10⁻⁶ cm/s

N#C[C@@H]1CSCN1C(=O)CNC(=O)c1ccnc2ccc(N3CC(F)(CF)C3)cc12 [Example 157, (R)—N-(2-(4-Cyanothiazolidin-3-yl)-2-oxoethyl)-6-(3-fluoro-3-(fluoromethyl)azetidin-1-yl)quinoline-4-carboxamide]
IC50 (FAP): 0.4 nM

N#C[C@@H]1CSCN1C(=O)CNC(=O)c1ccnc2ccc(N3CC(CF)C3)cc12 [Example 113, (R)—N-(2-(4-Cyanothiazolidin-3-yl)-2-oxoethyl)-6-(3-(fluoromethyl)azetidin-1-yl)quinoline-4-carboxamide]
Papp A→B (Caco-2 cell permeability): 20 ×10⁻⁶ cm/s
IC50 (FAP): 0.4 nM

N#C[C@@H]1CSCN1C(=O)CNC(=O)c1ccnc2ccc(N3CC(C(F)F)C3)cc12 [Example 28, (R)—N-(2-(4-Cyanothiazolidin-3-yl)-2-oxoethyl)-6-(3-(difluoromethyl)-azetidin-1-yl)quinoline-4-carboxamide]
Papp A→B (Caco-2 cell permeability): 21 ×10⁻⁶ cm/s
IC50 (FAP): 0.3 nM

CC1(CS(C)(=O)=O)CN(c2ccc3nccc(C(=O)NCC(=O)N4CSC[C@H]4C#N)c3c2)C1 [Example 188, (R)—N-(2-(4-Cyanothiazolidin-3-yl)-2-oxoethyl)-6-(3-methyl-3-((methylsulfonyl)methyl)azetidin-1-yl)quinoline-4-carboxamide]
Papp A→B (Caco-2 cell permeability): 0.28 ×10⁻⁶ cm/s

CN1CCC(F)(c2ccc3nccc(C(=O)NCC(=O)N4CSC[C@H]4C#N)c3c2)CC1 [Example 195, (R)—N-(2-(4-Cyanothiazolidin-3-yl)-2-oxoethyl)-6-(4-fluoro-1-methyl-piperidin-4-yl)quinoline-4-carboxamide]
IC50 (FAP): 1 nM

N#C[C@@H]1CSCN1C(=O)CNC(=O)c1ccnc2ccc(N3C4CCC3COC4)cc12 [Example 98, 6-(3-Oxa-8-azabicyclo[3.2.1]octan-8-yl)-N-(2-((R)-4-cyanothiazolidin-3-yl)-2-oxoethyl)quinoline-4-carboxamide]
Papp A→B (Caco-2 cell permeability): 8.6 ×10⁻⁶ cm/s
IC50 (FAP): 0.3 nM

N#C[C@@H]1CSCN1C(=O)CNC(=O)c1ccnc2ccc(N3C[C@@H](F)[C@@H](F)C3)cc12 [Example 50, N-(2-((R)-4-Cyanothiazolidin-3-yl)-2-oxoethyl)-6-((3R,4S)-3,4-difluoropyrrolidin-1-yl)quinoline-4-carboxamide]
IC50 (FAP): 0.3 nM

CC1(C)CN(c2ccc3nccc(C(=O)NCC(=O)N4CSC[C@H]4C#N)c3c2)CCO1 [Example 88, (R)—N-(2-(4-Cyanothiazolidin-3-yl)-2-oxoethyl)-6-(2,2-dimethyl-morpholino)quinoline-4-carboxamide]
Papp A→B (Caco-2 cell permeability): 13 ×10⁻⁶ cm/s
IC50 (FAP): 0.2 nM

CC1(CF)CN(c2ccc3nccc(C(=O)NCC(=O)N4CSC[C@H]4C#N)c3c2)C1 [Example 27, (R)—N-(2-(4-Cyanothiazolidin-3-yl)-2-oxoethyl)-6-(3-(fluoromethyl)-3-methylazetidin-1-yl)quinoline-4-carboxamide]
IC50 (FAP): 0.3 nM

N#C[C@@H]1CSCN1C(=O)CNC(=O)c1ccnc2ccc(N3CC4(C3)OCCO4)cc12 [Example 163, (R)—N-(2-(4-Cyanothiazolidin-3-yl)-2-oxoethyl)-6-(5,8-dioxa-2-azaspiro[3.4]octan-2-yl)quinoline-4-carboxamide]
IC50 (FAP): 0.2 nM

COC1(C)CN(c2ccc3nccc(C(=O)NCC(=O)N4CSC[C@H]4C#N)c3c2)C1 [Example 151, (R)—N-(2-(4-Cyanothiazolidin-3-yl)-2-oxoethyl)-6-(3-methoxy-3-methylazetidin-1-yl)quinoline-4-carboxamide]
IC50 (FAP): 0.3 nM

CC1(C)CCN(c2ccc3nccc(C(=O)NCC(=O)N4CSC[C@H]4C#N)c3c2)C(=O)O1 [Example 112, (R)—N-(2-(4-Cyanothiazolidin-3-yl)-2-oxoethyl)-6-(6,6-dimethyl-2-oxo-1,3-oxazinan-3-yl)quinoline-4-carboxamide]
IC50 (FAP): 0.5 nM

CC1(C)OCCN(c2ccc3nccc(C(=O)NCC(=O)N4CSC[C@H]4C#N)c3c2)C1=O [Example 16, (R)—N-(2-(4-Cyanothiazolidin-3-yl)-2-oxoethyl)-6-(2,2-dimethyl-3-oxomorpholino)quinoline-4-carboxamide]
IC50 (FAP): 0.2 nM

C[C@@H]1OCCN(c2ccc3nccc(C(=O)NCC(=O)N4CSC[C@H]4C#N)c3c2)[C@H]1C [Example 82, N-(2-((R)-4-Cyanothiazolidin-3-yl)-2-oxoethyl)-6-((2S,3S)-2,3-dimethyl-morpholino)quinoline-4-carboxamide]
IC50 (FAP): 0.3 nM

N#C[C@@H]1CSCN1C(=O)CNC(=O)c1c(F)cnc2ccc(N3CCOCC3)cc12 [Example 2, (R)—N-(2-(4-Cyanothiazolidin-3-yl)-2-oxoethyl)-3-fluoro-6-morpholino-quinoline-4-carboxamide]
Papp A→B (Caco-2 cell permeability): 23 ×10⁻⁶ cm/s
IC50 (FAP): 9.2 nM

N#C[C@@H]1CSCN1C(=O)CNC(=O)c1ccnc2ccc(N3CCO[C@H](C(F)(F)F)C3)cc12 [Example 74, N-(2-((R)-4-Cyanothiazolidin-3-yl)-2-oxoethyl)-6-((S)-2-(trifluoromethyl)-morpholino)quinoline-4-carboxamide]
IC50 (FAP): 0.2 nM

CO[C@@H]1CN(c2ccc3nccc(C(=O)NCC(=O)N4CSC[C@H]4C#N)c3c2)[C@H]1C [Example 30, N-(2-((R)-4-Cyanothiazolidin-3-yl)-2-oxoethyl)-6-((2S,3R)-3-methoxy-2-methylazetidin-1-yl)quinoline-4-carboxamide]
Papp A→B (Caco-2 cell permeability): 15 ×10⁻⁶ cm/s

N#C[C@@H]1CSCN1C(=O)CNC(=O)c1ccnc2ccc(N3CCC(F)CC3)cc12 [Example 205, (R)—N-(2-(4-Cyanothiazolidin-3-yl)-2-oxoethyl)-6-(4-fluoropiperidin-1-yl)quinoline-4-carboxamide]
IC50 (FAP): 0.3 nM

N#C[C@@H]1CSCN1C(=O)CNC(=O)c1ccnc2ccc(N3CCO[C@H](CF)C3)cc12 [Example 71, N-(2-((R)-4-Cyanothiazolidin-3-yl)-2-oxoethyl)-6-((S)-2-(fluoromethyl)morpholino)-quinoline-4-carboxamide]
IC50 (FAP): 0.2 nM

CC1(O)CN(c2ccc3nccc(C(=O)NCC(=O)N4CSC[C@H]4C#N)c3c2)C1 [Example 165, (R)—N-(2-(4-Cyanothiazolidin-3-yl)-2-oxoethyl)-6-(3-hydroxy-3-methyl-azetidin-1-yl)quinoline-4-carboxamide]
Papp A→B (Caco-2 cell permeability): 0.51 ×10⁻⁶ cm/s

C[C@@H]1CN(c2ccc3nccc(C(=O)NCC(=O)N4CSC[C@H]4C#N)c3c2)C[C@@H](C)O1 [Example 70, N-(2-((R)-4-Cyanothiazolidin-3-yl)-2-oxoethyl)-6-((2R,6R)-2,6-dimethylmorpholino)-quinoline-4-carboxamide]
IC50 (FAP): 0.2 nM

CC1(F)CN(c2ccc3nccc(C(=O)NCC(=O)N4CSC[C@H]4C#N)c3c2)C1 [Example 24, (R)—N-(2-(4-Cyanothiazolidin-3-yl)-2-oxoethyl)-6-(3-fluoro-3-methyl-azetidin-1-yl)quinoline-4-carboxamide]
IC50 (FAP): 0.3 nM

CC(=O)N1CC2(C1)CN(c1ccc3nccc(C(=O)NCC(=O)N4CSC[C@H]4C#N)c3c1)C2 [Example 184, (R)-6-(6-Acetyl-2,6-diazaspiro[3.3]heptan-2-yl)-N-(2-(4-cyanothiazolidin-3-yl)-2-oxoethyl)quinoline-4-carboxamide]
Papp A→B (Caco-2 cell permeability): 0.1 ×10⁻⁶ cm/s
IC50 (FAP): 0.3 nM

N#C[C@@H]1CSCN1C(=O)CNC(=O)c1ccnc2ccc(N3CCO[C@@H](CF)C3)cc12 [Example 69, N-(2-((R)-4-Cyanothiazolidin-3-yl)-2-oxoethyl)-6-((R)-2-(fluoromethyl)morpholino)-quinoline-4-carboxamide]
IC50 (FAP): 0.2 nM
